Source: patent US8613950B2, “Pharmaceutical forms with improved pharmacokinetic properties” (Bayer Intellectual Property GmbH, priority 2005, dated 2013)
Structures can show the parent of a compound that is named as a salt.

What was measured:
[1] = Solubility of the vardenafil form employed in 10 ml of physiological saline at 25° C.; type: physicochemical
Description: Accordingly, the present invention provides a vardenafil-comprising drug formulation, which is characterized in that the solubility of the form of vardenafil employed in a small amount of aqueous liquid is sufficiently high and the dissolution rate of the formulation disintegrating in the mouth is sufficiently rapid.

[2] = cited from earlier work

| Compound | amount of the active compound form that dissolves in 10 ml of physiological saline ([1]; 10 ml physiological saline, amount offered = tablet dose corresponding to 10 mg of vardenafil, hydrochloride trihydrate) | dissolved amount expressed as vardenafil ([1]; 10 ml physiological saline, dose 11.85 mg vardenafil hydrochloride trihydrate) | share of the active compound employed that dissolves in 10 ml of physiological saline ([1]; dose 5.93 mg vardenafil hydrochloride trihydrate (5 mg vardenafil)) | share of the dose of the active compound employed that dissolves in 10 ml of physiological saline ([1]; dose corresponding to 10 mg of vardenafil, hydrochloride trihydrate) | bioavailability ([2]; known property of vardenafil, oral) | time after administration at which the rapid decrease in the plasma concentration occurs ([2]; oral administration of vardenafil) |
| --- | --- | --- | --- | --- | --- | --- |
| CCCc1nc(C)c2c(=O)[nH]c(-c3cc(S(=O)(=O)N4CCN(CC)CC4)ccc3OCC)nn12 [vardenafil hydrochloride trihydrate] | about 10.4 mg | 8.8 mg | 91% | 88% |  |  |
| CCCc1nc(C)c2c(=O)[nH]c(-c3cc(S(=O)(=O)N4CCN(CC)CC4)ccc3OCC)nn12 [vardenafil] |  |  |  |  | about 14% | about 1 hour |
